From publication PMC6286779, “HLA-A2-Restricted Epitopes Identified from MTA1 Could Elicit Antigen-Specific Cytotoxic T Lymphocyte Response” (Journal of Immunology Research, 2018)
No end group written: not given here.

What was measured:
[1] = biological target: HLA-A*0201 molecule on T2 cells (human (endogenous in T2) | human); test: flow cytometry on cells; stability assay: T2 cells loaded with peptide (50 μg/ml) and 3 μg/ml β2-M for 18 h at 37°C, brefeldin A (10 μg/ml) 1 h, then 0, 2, 4 and 6 h at 37°C; stained with BB7.2; DC50 = time for the loss of 50% of the HLA-A*0201/peptide complexes stabilized at 0 h
[2] = biological target: T1, peptide/HLA-A*0201 complexes (Homo sapiens, UniProt P04439, D140Y/D185E/D98H/E176V/E277Q/G131W/G231S/I119V/I121R/I166T/I218V/L300P/L318F/N151K/N90K/P208A/P217A/Q86G/Q94H/R138H/R169H/T345S); test: T2 stabilization (stability) assay; assay type: binding; conditions: T2 cells, peptide 50 μg/ml, 18 h, then brefeldin A 10 μg/ml 1 h; read at 0, 2, 4, 6 h, 37°C; flow cytometry
T1 construct: endogenous in cells; host or cells: T2 lymphoblastic cell line (TAP-deficient)
Method: For the stability assay, each of the selected peptides (50 μg/ml) was incubated with T2 cells (1 × 10^6 cells/ml) for 18 h in serum-free RPMI 1640 medium supplemented with 3 μg/ml β2-M at 37°C. Thereafter, cells were washed twice and incubated with brefeldin A (10 μg/ml, eBiosciences, USA) for 1 h. Subsequently, the cells were washed and incubated for 0, 2, 4, and 6 h at 37°C. Cells were washed twice, stained with BB7.2 for 0.5 h at 4°C. Finally, cells were collected, washed, and analyzed by flow cytometry. Dissociation complex 50 (DC50) was defined as time (t) required for the loss of 50% of the HLA-A^∗0201/peptide complexes stabilized at 0 h.

HLA-A*0201 molecules = HLA-A*0201 molecules (Homo sapiens, UniProt P04439, D140Y/D185E/D98H/E176V/E277Q/G131W/G231S/I119V/I121R/I166T/I218V/L300P/L318F/N151K/N90K/P208A/P217A/Q86G/Q94H/R138H/R169H/T345S); test: T2 binding assay; conditions: T2 cells 1 × 10^6 cells/ml, peptide 50 μg/ml, 3 μg/ml β2-M, serum-free RPMI 1640, 18 h, 37°C; BB7.2 staining, flow cytometry; FI > 1.5 = high affinity
Method: The binding affinity of these peptides to HLA-A^∗0201 was evaluated according to our previous study. Briefly, T2 cells (1 × 10^6 cells/ml) were incubated with each peptide (50 μg/ml) and 3 μg/ml human β2-microglobulin (β2-M, Merck, Germany) in serum-free RPMI 1640 medium for 18 h at 37°C in a humidified atmosphere of 5% CO2. Then cells were washed twice and incubated with the anti-human HLA-A2 PE-Cyanine7 mAb, BB7.2 (eBioscience, USA) for 0.5 h at 4°C. Finally, cells were collected, washed, and analyzed using flow cytometry (FACSCalibur, Becton Dickinson, USA). The fluorescence index (FI) calculation was performed as follows: FI = [(mean fluorescence intensity (MFI) of the given peptide − background) − (MFI of the PBS control group − background)]/[(MFI of the PBS control group − background)]. The MFI value of cells untreated with peptides and antibodies was employed as background. Peptides with an FI factor of more than 1.5 were classed as high-affinity candidates.

[3] = test system: SW620 incubated with an anti-human HLA-A2 antibody; test: LDH cytotoxicity assay, CTLs induced in vitro, HLA-A2 blocked; assay type: cell-based; conditions: peptide-induced CTLs, BB7.2 added 30 min before effectors
Method: (§1) CTL induction in vitro was conducted according to the procedures previously described. Briefly, PBMCs from eight HLA-A^∗02^+ healthy donors were isolated using Ficoll-Paque density gradient centrifugation and resuspended in RPMI 1640 medium supplemented with 10% FBS. Then, PBMCs were stimulated three times (once a week) with the indicated peptides (10 μg/ml) or protein MTA1(1–283) (at final concentrations of 0, 1, 10, 30, and 50 μg/ml) for 21 days. Human recombinant cytokine interleukin-2 (IL-2) (50 U/ml) was added on day 3 and 1 day after each stimulation. The cytotoxic assay (lactate dehydrogenase (LDH) assay) and IFN-γ secretion enzyme-linked immunospot (ELISPOT) assay were performed on day 21.
(§2) Cytotoxic activity of induced T cells was tested based on the quantitation of LDH release using the nonradioactive cytotoxicity assay kit (Promega, USA) at the gradient E/T ratio [29, 31]. Target cells which expressed different levels of MTA1 or peptide-pulsed T2 cells were used as target cells. The anti-human HLA-A2 antibody (BB7.2) was added 30 min before adding effector cells to determine the HLA restriction. Target cells (5 × 10^3/well) were cocultured with the effector cells at 37°C for 4 h. The percentage of specific lysis of the target cells was determined using the equation: percentage of specific lysis = [(experimental release − effector spontaneous release − target spontaneous release)/(target maximum release − target spontaneous release)] × 100.

[4] = test system: PBMCs from HLA-A*02+ healthy donors; test: IFN-γ ELISPOT of CTLs induced in vitro; assay type: cell-based, human; conditions: PBMCs of six donors stimulated with peptide 10 μg/ml three times, day 21; stimulators peptide-pulsed T2 cells (50 μg/ml); 1 × 10^5 effectors; mean, n = 6
Method: as §1
The ELISPOT assay was performed using a commercial kit (Dakewe, China) according to the procedures previously described. Briefly, T2 cells incubated with/without candidate peptide (50 μg/ml) were used as the stimulating cells, effector cells (1 × 10^5) and stimulator cells (peptide-pulsed T2 cells or T2 cells only, 1 × 10^5) were seeded into the 96-well plate precoated with an anti-human (or anti-mouse) IFN-γ antibody. After incubation at 37°C for 18 h, cells were removed, and plates were processed for analysis as instructed. The spot number was determined automatically using a computer-assisted spot analyzer (Dakewe, China).

SW620 (HLA-A2+, MTA1+) = test: LDH cytotoxicity assay, CTLs induced in vitro; assay type: cell-based, human; conditions: CTLs induced by peptide 10 μg/ml from donor no. 6; E/T 50 : 1; LDH release, 4 h; n = 3
Method: as §1, §2

MCF-7 (HLA-A2+, MTA1+) = test: LDH cytotoxicity assay, CTLs induced in vitro; assay type: cell-based, human; conditions: peptide-induced CTLs from healthy donors, E/T 50 : 1
Method: as §1, §2

[5] = test system: MDA-MB-231 (HLA-A2+, MTA1+); test: LDH cytotoxicity assay, CTLs induced in vitro; assay type: cell-based, human; conditions: CTLs induced by peptide 10 μg/ml from donor no. 6; E/T 50 : 1; LDH release, 4 h; n = 3
Method: as §1, §2

HT-29 (HLA-A2−, MTA1+) = test: LDH cytotoxicity assay, CTLs induced in vitro; assay type: cell-based, human; conditions: peptide-induced CTLs, HLA-A2-negative control target
Method: as §1, §2

[6] = test system: Het-1A (HLA-A2+, MTA1low); test: LDH cytotoxicity assay, CTLs induced in vitro; assay type: cell-based, human; conditions: peptide-induced CD8+ T cells, E/T 50 : 1
Method: as §1, §2

[7] = biological target: HLA-A*0201 molecule on T2 cells (human (endogenous in T2) | human); test: flow cytometry on cells; T2 binding assay: T2 cells (1 x 10^6 cells/ml) with peptide (50 μg/ml) and 3 μg/ml human β2-M in serum-free RPMI 1640, 18 h, 37°C; surface HLA-A2 stained with BB7.2 PE-Cyanine7; fluorescence index (FI); FI > 1.5 classed as high affinity

DC50 [1] [h]	FI (fluorescence index) (HLA-A*0201 molecules)	FI (fluorescence index) [7]	Molecule	further results
	1.905		ILIGETIKI [COX-2_321-329, reference compound]	DC50: time required for the loss of 50% of the HLA-A*0201/peptide complexes stabilized at 0 h [2]: >6 h
	1.56		ALADKHATL [Peptide P57]	lysis of SW620 cells incubated with an HLA-A2 blocking antibody [3]: did not lyse; DC50: time required for the loss of 50% of the HLA-A*0201/peptide complexes stabilized at 0 h [2]: >6 h; IFN-γ ELISPOT mean spot intensities [4]: 543; lysis rate of SW620 cells (SW620 (HLA-A2+, MTA1+)): 45.8%; rate of MCF-7 cell lysis (MCF-7 (HLA-A2+, MTA1+)): 17.6%; lysis rate of MDA-MB-231 cells [5]: 30.5%; lysis of HT-29 cells (HT-29 (HLA-A2−, MTA1+)): did not lyse
	2.61		FLSRQLESL [Peptide P109]	lysis of SW620 cells incubated with an HLA-A2 blocking antibody [3]: did not lyse; DC50: time required for the loss of 50% of the HLA-A*0201/peptide complexes stabilized at 0 h [2]: >6 h; IFN-γ ELISPOT mean spot intensities [4]: 453; rate of Het-1A cell lysis [6]: 11.9%; lysis rate of SW620 cells (SW620 (HLA-A2+, MTA1+)): 65.5%; rate of MCF-7 cell lysis (MCF-7 (HLA-A2+, MTA1+)): 23.8%; lysis rate of MDA-MB-231 cells [5]: 32.2%; lysis of HT-29 cells (HT-29 (HLA-A2−, MTA1+)): did not lyse
	0.22		YQADITDLL [Peptide P173]	
> 6		1.91	ILIGETIKI (not fully specified) [cyclooxygenase-2 (COX-2) 321-329 peptide]	
> 6		2.61	FLSRQLESL [MTA1 peptide P109]	
> 6		1.28	TLLNETESL [MTA1 peptide P129]	
> 2		2.08	YLIRRIEEL [MTA1 peptide P22]	
> 6		1.56	ALADKHATL [MTA1 peptide P57]	
		0.22	YQADITDLL [MTA1 peptide P173]	

Molecule	DC50 [1] [h]	FI (fluorescence index) (HLA-A*0201 molecules)	FI (fluorescence index) [7]	further results
HBcAg 18-27 peptide	> 6			
